What was measured:
32D cl 3 cells [1] = assay: Clonogenic radiation survival curves of 32D cl 3 cells (PLDR study); type: cell-based, mouse; set-up: key to D0: D0 in Gy, from single-hit multitarget model
Method: (§1) 32D cl 3 cells were resuspended at 1×10^5 cells/mL in 10×100-mm tubes and divided into three groups: radiation only, post-irradiation treatment with 10 μM JP4-039, and post-irradiation treatment with 10 μM TEMPO. Cells were irradiated to doses ranging from 0 to 8 Gy and were plated immediately after irradiation.
as §1, with “5×10^5” for “1×10^5”, “then incubated in exponentially growing colonies (flasks) for 24, 48 and 72 h in a high-humidity incubator at 37° C. with 95% air/5% CO2.” for “plated immediately after irradiation.”
32D cl 3 cells were resuspended at 5×10^5 cells/mL in 10×100-mm tubes. Cells were irradiated to doses ranging from 0 to 8 Gy and were then centrifuged at 1500 RPM for 10 minutes and incubated in vertical tubes held tight in pellets with a total of 5×10^5 cells/pellet for 24, 48 and 72 h in a high-humidity incubator at 37° C. with 95% air/5% CO2.
Cells incubated under either logarithmic or PLDR conditions were resuspended at 24, 48 and 72 h after irradiation, and cell viability was assessed using an automated cell viability counter (Beckman Coulter, Fullerton, Calif.). Subsequently, at 24, 48, 72 h, cells in pellets and flasks were resuspended and treated with 10 μM JP4-039, 10 μM TEMPO, or no treatment and were plated in triplicate in semisolid methylcellulose-containing medium at viable cell concentrations ranging from 500-40,000 cells/mL. Cells were incubated in a high-humidity incubator at 37° C. with 95% air/5% CO2 for 7 d and colonies of greater than 50 cells were scored according to published methods (Epperly M W, Gretton J E, Sikora C A, Jefferson M, Bernarding M, Nie S, et al.: Mitochondrial localization of superoxide, dismutase is required for decreasing radiation-induced cellular damage. Radiat Res. 160: 568-578, 2003).
Data from radiation survival curves were analyzed using the linear-quadratic and single-hit, multitarget models (Epperly M, et al., Prevention of late effects of irradiation lung damage by manganese superoxide dismutase gene therapy. Gene Ther. 5: 196-208, 1998). Results are presented as the mean±standard error of the mean from at least three measurements. Student's t test and two-way ANOVA were used to compare means of different groups where appropriate.

32D cl 3 cells [2] = assay: EPR-based analysis of nitroxide distribution and partitioning in subcellular fractions; type: cell-based, mouse; details: flask or pelleted, 10 μM, 1 h
Method: To determine nitroxide partitioning and distribution in subcellular compartments, electron paramagnetic resonance (EPR) was utilized. 32D cl 3 cells were incubated for 24 h under pelleted or flask growth conditions. After incubation, 150×10^6 cells were resuspended at a concentration of 10×10^6 cells/mL and were treated with 10 μM JP4-039 or 10 μM TEMPO for 1 h (Wipf P, et al., Mitochondrial targeting of selective electron scavengers: synthesis and biological analysis of hemigramicidin-TEMPO conjugates. J Am Chem. Soc. 127: 12460-12461, 2005).
Subcellular compartments were isolated by differential centrifugation. Cells were centrifuged at 1500 RPM for 10 min and the supernatant (media) was removed. The remaining whole cell pellet was washed with cold PBS, resuspended in 0.3 mL of hypotonic buffer solution, and incubated on ice for 45 min. Cells were then lysed by three rapid freeze-thaw cycles in liquid nitrogen for 30 sec and water at 25° C. for 3 min. Lysed cells were centrifuged at 3000×g for 5 min to isolate nucleus and cellular debris. Supernatant was centrifuged at 12000×g for 45 min to isolate mitochondria from cytoplasm (Wipf P, et al., Mitochondrial targeting of selective electron scavengers: synthesis and biological analysis of hemigramicidin-TEMPO conjugates. J Am Chem. Soc. 127: 12460-12461, 2005).
Each cellular fraction (media, whole cell pellet, nucleus/cellular debris, mitochondria, and cytoplasm) was mixed with DMSO (1:1 vol/vol) and 2 mM of potassium ferricyanide (K3Fe(CN)6) to convert […] to EPR-detectable radical forms (Behringer W, et al., Antioxidant Tempol enhances hypothermic cerebral preservation during prolonged cardiac arrest in dogs. J Cereb Blood Flow Metab. 22: 105-117, 2002). 70 μL of the homogenate was loaded into Teflon tubing (0.8 mm internal diameter) (Alpha Wire Corp., Elizabeth, N.J.) which was folded in half and placed into an open ESR quartz tube (inner diameter of 3.0 mm). EPR measurements were made in triplicate using a JEOL-RE1X EPR spectrometer (Jeol, Tokyo, Japan) under the following conditions: 334.7 mT center field, 5 mT sweep width, 0.079 mT field modulation, 20 mW microwave power, 0.1 sec time constant, and 2 min scan time at 22.5° C. Utilizing signal magnitude and isolated volumes, amount and concentration of JP4-039 or TEMPO were calculated for each sample.

Ercc1−/Δ mice = details: parental compound, comparison statement; cited from earlier work
[3] = 0 hours, 10 μM post-irradiation

In the case of `CC1(C)CCCC(C)(C)N1[O]` [TEMPO, 2,2,6,6-tetramethylpiperidine-N-oxyl, reference compound], the D0 (32D cl 3 cells [1]; [3]) is reported as 1.04 ± 0.07, the Ñ (32D cl 3 cells [1]; [3]) is reported as 8.23±4.35 and the radiation mitigation (32D cl 3 cells [1]; 48 or 72 h after irradiation) is reported as “no statistically significant radiation mitigation”. For the same compound, the D0 (32D cl 3 cells [1]; 24 hours (Flask), 10 μM) was 1.26 ± 0.11, the Ñ (32D cl 3 cells [1]; 24 hours (Flask), 10 μM) was 8.86 ± 6.69 and the D0 (32D cl 3 cells [1]; 24 hours (Pellet), 10 μM) was 1.13 ± 0.19. The Ñ (32D cl 3 cells [1]; 24 hours (Pellet), 10 μM) was 7.59±1.71, the “nitroxide signal in whole cell pellet and subcellular fractions” value (32D cl 3 cells [2]) was “below the detectable threshold” and the body weight (Ercc1−/Δ mice) was “cause weight loss”.

— US8822541B2, “Use of targeted nitroxide agents in mitigating or treating radiation injury” (University of Pittsburgh—Of the Commonwealth System of …, priority 2008, dated 2014)
